Assay results: ChEMBL document CHEMBL4346726 (Bioorg Med Chem Lett, 2019)

What was measured:
[1] = Inhibition of HCV genotype 3a NS3/4a protease by enzymatic assay; parameters: species or system Hepatitis C virus subtype 3a
Hepatitis C virus = experiment: Antiviral activity against HCV genotype 3a in RLuc cells assessed as reduction in viral replication by luciferase reporter gene assay; type: functional, organism-based, Hepacivirus hominis, subtype 3a; conditions: Hepatitis C virus, subtype 3a
[2] = Drug metabolism in human liver microsomes assessed as metabolite formation in presence of glutathione; type: ADME, Microsome
[3] = Volume of distribution at steady state in rat; type: ADME; conditions: in vivo, read-out: Vdss
[4] = Half life in rat; type: ADME; conditions: in vivo
[5] = Clearance in rat; type: ADME; conditions: in vivo
Hepacivirus hominis = experiment: Binding affinity to HCV NS3/4a protease assessed as compound-protein adduct formation per mg protein using radiolabelled compound
[6] = Lipophilicity, log D of compound; type: physicochemical; conditions: octanol/water
[7] = Oral bioavailability in rat; type: ADME, organism-based; conditions: in vivo
[8] = Drug concentration in rat liver after 6 hrs; type: ADME, tissue-based; conditions: read-out: Drug uptake
[9] = MRT in rat; type: ADME; conditions: in vivo
[10] = Drug metabolism in human liver microsomes assessed as hydroxylated metabolite formation; type: ADME, Microsome

Row | Ki [1] [nM] | EC50 (Hepatitis C virus) [nM] | Drug metabolism [2] | Vd [3] [L/kg] | half-life [4] [h] | clearance [5] [mL/min/kg] | PB (Hepacivirus hominis) [pmol/mg] | logD [6] | bioavailability [7] [%] | concentration at 6 h [8] [µM] | MRT [9] [h] | Drug metabolism [10] | SMILES
1 | 0.094 | 41 | Metabolite_Detected |  |  |  |  |  |  |  |  |  | C=C[C@@H]1C[C@]1(NC(=O)[C@@H]1[C@H](C)[C@@H]2CN1C(=O)[C@H](C(C)(C)C)NC(=O)O[C@@H]1C[C@H]1CCCCCc1nc3ccc(OC)cc3nc1O2)C(=O)NS(=O)(=O)C1CC1
2 | 0.067 | 23 |  | 1.7 | 1.4 | 21.7 | 10 | 3.8 | 31 | 14 | 1.4 | Metabolite_Detected | CC[C@@H]1[C@@H]2CN(C(=O)[C@H](C(C)(C)C)NC(=O)O[C@@H]3C[C@H]3CCCCCc3nc4ccc(OC)cc4nc3O2)[C@@H]1C(=O)N[C@]1(C(=O)NS(=O)(=O)C2(C)CC2)C[C@H]1C(F)F
